For 17 molecules, IC50, inhibition and Ratio IC50 results are on record in ChEMBL document CHEMBL1926533, “Synthesis and biological evaluation of cyclopentane-linked alkyl phosphocholines as potential anticancer agents that act by inhibiting Akt phosphorylation” (Eur J Med Chem, 2012).

The subject of assay [1] is A549. In words: Cytotoxicity against human A549 cells after 24 hrs by FACS analysis. The format is functional, cell-based. Conditions: A549, 24 h. Background: Flow cytometry measures light scatter and fluorescence of single cells or particles in a stream.
Assay [2] is described as follows: Cytotoxicity against human KATO III cells after 24 hrs by FACS analysis. Format: functional, cell-based, KATO III cell.
The subject of the next assay is MCF7. In words: Cytotoxicity against human MCF7 cells after 24 hrs by FACS analysis. The format is functional, cell-based. The following applies: MCF7, 24 h.
Assay [3] can be described thus: Inhibition of Akt phosphorylation in insulin-stimulated human A549 cells treated 2 hrs before insulin stimulation measured after 30 mins by ELISA. The format is cell-based. On the technique in general: An ELISA detects its analyte on a solid surface through an enzyme-linked reagent.
Assay [4] concerns A549. As to the kind of experiment: Inhibition of Akt phosphorylation in insulin-stimulated human A549 cells at 10 uM treated 2 hrs before insulin stimulation measured after 30 mins by ELISA. The format is cell-based.
Assay [5] concerns A549. In words: Ratio of miltefosine IC50 to compound IC50 for inhibition of Akt phosphorylation in insulin-stimulated human A549 cells. The format is cell-based.
Assay [6] has as its system A549. In words: Ratio of perifosine IC50 to compound IC50 for inhibition of Akt phosphorylation in insulin-stimulated human A549 cells. Format: cell-based.
Assay [7] deals with A549. As to the kind of experiment: Ratio of erufosine IC50 to compound IC50 for inhibition of Akt phosphorylation in insulin-stimulated human A549 cells. The format is cell-based.

What is called IC50 is the concentration that gives 50% inhibition. Low readings indicate greater potency in that assay, high ones weaker potency in that assay. By inhibition is commonly meant the change of the read-out against control, counted positive when it falls. Consider `CCCCCCCCCCCCCCCCCCOC[C@@H]1CCC[C@H]1OP(=O)([O-])OCC[N+](C)(C)C` (racemic), for which the IC50 with A549 [1] stood at 10.8 µM; in assay [2], 10.4 µM; in the assay on MCF7, 13.8 µM; in assay [3], 10.3 µM. Further, in the assay on A549 [4], the inhibition was found to be 63.4%.
As for `CCCCCCCCCCCCCCCCCCCCOC[C@@H]1CCC[C@H]1OP(=O)([O-])OCC[N+](C)(C)C` (racemic), the IC50 turned out to be 6.4 µM with A549 [1], 8.7 µM in assay [2], 10.8 µM in the assay with MCF7 and 3.6 µM in assay [3]. The Ratio IC50 was determined as 3 in the assay with A549 [5], 2 in the assay with A549 [6] and 3 in the assay with A549 [7]. The same molecule returned an inhibition with A549 [4] of 74.4%.
With `CCCCCCCCCCCCCCCCOP(=O)([O-])OCC[N+](C)(C)C` [MILTEFOSINE], the IC50 with A549 [1] came to 9.7 µM; in assay [2], 12.1 µM; with MCF7, 11.4 µM; in assay [3], 9.6 µM. The inhibition in the assay with A549 [4] came to 56.3%.
Regarding `CCCCCCCCCCCCO[C@@H]1CCC[C@H]1COP(=O)([O-])OCC[N+](C)(C)C` (racemic), the IC50 in assay [2] is 10.4 µM; in the assay on MCF7, 14.7 µM. For the same molecule, in the assay with A549 [4], the inhibition was 31.7%.
`CCCCCCCCCCCCCCCCCCCCO[C@H]1CCC[C@H]1COP(=O)([O-])OCC[N+](C)(C)C` (racemic): the IC50 in the assay with A549 [1] stood at 9.7 µM; in assay [2], 8.8 µM; in the assay with MCF7, 16.3 µM; in assay [3] it was 16.3 µM. The molecule also had an inhibition with A549 [4] of 54.4%.
`CCCCCCCCCCCCOC[C@@H]1CCC[C@H]1OP(=O)([O-])OCC[N+](C)(C)C` (racemic): the values for the IC50 (in the assay on A549 [1]; in assay [2]; in the assay with MCF7) were 11 µM, 10.6 µM and 11.8 µM, respectively. In the assay on A549 [4], this molecule came in with an inhibition of 36.2%.
Turning to `CCCCCCCCCCCCCO[C@H]1CCC[C@H]1COP(=O)([O-])OCC[N+](C)(C)C` (racemic), the IC50 with A549 [1] worked out at 10.2 µM; in assay [2] it was 12.1 µM; in the assay with MCF7, 10.7 µM. For the same molecule, the inhibition in the assay on A549 [4] is 44.7%.
Taken in the same sequence, the figures for `CCCCCCCCCCCCCCCCCCO[C@@H]1CCC[C@H]1COP(=O)([O-])OCC[N+](C)(C)C` (racemic) were 19.3 µM, 8.2 µM, 15.7 µM and 32.4%.
For the molecule `CCCCCCCCCCCCCCCCCCOP(=O)([O-])OC1CC[N+](C)(C)CC1` [PERIFOSINE], the IC50 in the assay with A549 [1] is 7 µM; in assay [2] it was 12.8 µM; in the assay with MCF7, 13.3 µM; in assay [3] it was 5.3 µM. This molecule had an inhibition in the assay on A549 [4] of 68%.
For `CCCCCCCCCCCCCCCCCCCCO[C@@H]1CCC[C@H]1COP(=O)([O-])OCC[N+](C)(C)C` (racemic) the same measures were 9.8 µM, 7.7 µM, 15.6 µM, 9.1 µM and 58.9%.
For the molecule `CCCCCCCCCCCCCCCCCCCCCCOC[C@@H]1CCC[C@H]1OP(=O)([O-])OCC[N+](C)(C)C` (racemic), the IC50 came out at 16 µM with A549 [1], 11.9 µM in assay [2], 16.3 µM in the assay on MCF7 and 10 µM in assay [3]. For the same molecule, the inhibition in the assay with A549 [4] came out at 58.2%.
Taken in the same sequence, the figures for `CCCCCCCCCCCCCCCCCCCCCCO[C@@H]1CCC[C@H]1COP(=O)([O-])OCC[N+](C)(C)C` (racemic) were 11.1 µM, 17.6 µM, 19.5 µM, 6.5 µM and 68%.
In the case of `CCCCCCCCCCCCCCCCCCO[C@H]1CCC[C@H]1COP(=O)([O-])OCC[N+](C)(C)C` (racemic), the IC50 came to 17.8 µM in the assay with A549 [1], 9.2 µM in assay [2] and 13.2 µM in the assay with MCF7. This molecule also displayed an inhibition in the assay on A549 [4] of 35.2%.
As for `CCCCCCCCCCCCCOC[C@@H]1CCC[C@H]1OP(=O)([O-])OCC[N+](C)(C)C` (racemic), the IC50 was 6.1 µM with A549 [1], 10.2 µM in assay [2], 7.7 µM in the assay on MCF7 and 6.6 µM in assay [3]. Also, in the assay with A549 [4], the inhibition was 65.4%.
For `CCCCCCCCCCCCCCCCCCCCCCO[C@H]1CCC[C@H]1COP(=O)([O-])OCC[N+](C)(C)C` (racemic), the results for the IC50 (in the assay with A549 [1]; in assay [2]; with MCF7) were 23.3 µM, 8.6 µM and 12.8 µM, respectively. This molecule came in with an inhibition with A549 [4] of 36.2%.
Taken in the same sequence, the figures for `CCCCCCCCCCCCO[C@H]1CCC[C@H]1COP(=O)([O-])OCC[N+](C)(C)C` (racemic) were 26.3 µM, 7.4 µM, 24.2 µM and 30.4%.
For `CCCCCCCCCCCCCO[C@@H]1CCC[C@H]1COP(=O)([O-])OCC[N+](C)(C)C` (racemic) the same measures were 9.4 µM, 10.1 µM, 17.8 µM and 40.8%.
